Source: publication PMC12282428 (Virologica Sinica, 2025)

Biological target: T1, PEDV RdRp (Nsp12) (Porcine epidemic diarrhea virus, UniProt K4NS01)
T1 sequence (K4NS01 4101-5027): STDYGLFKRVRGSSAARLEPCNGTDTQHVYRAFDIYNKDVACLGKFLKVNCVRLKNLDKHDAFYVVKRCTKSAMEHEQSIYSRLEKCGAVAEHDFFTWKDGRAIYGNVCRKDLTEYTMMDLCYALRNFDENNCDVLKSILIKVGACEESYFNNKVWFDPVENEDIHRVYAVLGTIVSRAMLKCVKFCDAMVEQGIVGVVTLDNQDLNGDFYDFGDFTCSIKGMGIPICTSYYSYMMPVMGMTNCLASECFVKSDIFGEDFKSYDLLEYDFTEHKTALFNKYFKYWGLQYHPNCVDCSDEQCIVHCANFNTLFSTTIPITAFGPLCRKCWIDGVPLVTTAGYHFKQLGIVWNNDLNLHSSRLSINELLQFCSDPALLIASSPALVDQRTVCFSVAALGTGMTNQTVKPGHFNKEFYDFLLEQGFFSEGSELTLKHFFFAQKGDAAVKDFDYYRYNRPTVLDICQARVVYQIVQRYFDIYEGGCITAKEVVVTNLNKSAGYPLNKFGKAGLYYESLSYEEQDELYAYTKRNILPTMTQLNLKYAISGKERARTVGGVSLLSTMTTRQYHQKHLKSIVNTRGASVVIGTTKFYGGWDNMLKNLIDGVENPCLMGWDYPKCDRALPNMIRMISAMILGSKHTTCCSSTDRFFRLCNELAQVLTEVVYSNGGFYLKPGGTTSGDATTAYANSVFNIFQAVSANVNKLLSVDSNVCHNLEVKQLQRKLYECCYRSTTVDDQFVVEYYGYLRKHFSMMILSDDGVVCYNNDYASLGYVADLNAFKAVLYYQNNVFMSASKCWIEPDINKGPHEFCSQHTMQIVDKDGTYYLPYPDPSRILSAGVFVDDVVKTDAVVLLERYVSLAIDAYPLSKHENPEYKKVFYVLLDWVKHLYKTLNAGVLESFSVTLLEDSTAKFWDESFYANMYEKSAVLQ
Assay: CoV-RdRp-Gluc luciferase reporter assay in transfected HEK-293T cells
Format: cell-based

CC(C)/N=c1\cc2n(-c3ccc(Cl)cc3)c3ccccc3nc-2cc1Nc1ccc(Cl)cc1 [clofazimine]
IC50: 136 nM
